Measured values as given in publication PMC7948405, “Small-molecule control of neurotransmitter sulfonation” (The Journal of Biological Chemistry, 2020).

Assays:
SULT1A3 [1] = target: T1, SULT1A3 (Homo sapiens, UniProt P0DMM9); set-up: method as in PMID 30545938; conditions: saturating inhibitor, cited from earlier work
T1 construct: E. coli–optimized SULT coding regions were inserted into a pGEX-6P expression vector; N-His/GST/MBP triple tag (PreScission-cleavable) (N, cleaved yes); made in house; host or cells: E. coli BL21(DE3)
T1 sequence (P0DMM9 whole entry): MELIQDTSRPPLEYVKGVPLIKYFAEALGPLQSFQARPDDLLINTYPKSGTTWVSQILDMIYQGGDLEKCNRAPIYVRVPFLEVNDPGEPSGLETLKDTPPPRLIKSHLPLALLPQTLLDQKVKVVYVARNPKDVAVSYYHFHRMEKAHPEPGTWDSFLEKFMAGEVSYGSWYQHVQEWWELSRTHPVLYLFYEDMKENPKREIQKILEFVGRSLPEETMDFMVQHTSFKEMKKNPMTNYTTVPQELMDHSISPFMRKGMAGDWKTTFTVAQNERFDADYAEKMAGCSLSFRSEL

SULT1A3 [2] = target: T1, SULT1A3; assay: Equilibrium binding of PAP to SULT1A3 complexes (intrinsic fluorescence)
Description: CMP13 binding to SULT1A3 was monitored via binding-induced changes in SULT1A3 intrinsic fluorescence (λex= 290 nm, λem= 335 nm ([17])). […] PAP binding was determined using the same protocol except that [PAP] was varied and CMP13 was 1.0 μM (100 × Ki). Titrations were performed in triplicate. Data were averaged and least-squares fit using a model that assumes a single binding site per monomer.

SULT1A3 [3] = target: T1, SULT1A3; assay: Pre-steady-state (stopped-flow fluorescence) binding of PAP to SULT1A3 complexes; conditions: for Kd: read-out: Kd (koff/kon)
Source text: Figure 4 The inhibition mechanism. A, equilibrium binding. Binding was monitored via ligand-induced changes in SULT1A3 intrinsic fluorescence (λex = 290 nm, λem = 335 nm). […] Each dot represents the average of three independent titrations. Lines passing through the data represent the outcomes predicted by least-squares fitting of the averaged data to a single-binding-site model. B, representative PAP-binding reaction. PAP binding was monitored using a stopped-flow fluorimeter (λex = 290 nm, λem ≥ 330 nm (cutoff filter)). Reactions were initiated by rapidly mixing (1:1 v/v) a solution containing SULT1A3 (30 nM, dimer), CMP13 (1.0 μM, 100 × Kd), Tam (160 μM, 200 × Kd), KPO4 (50 mM), pH 7.5, 25(±2) °C, with a solution that was identical except that it lacked SULT1A3 and contained PAP (2.0 μM). The average of five independent progress curves shown and the kobs was obtained by fitting the data to a single exponential. C, pre–steady-state binding. PAP binding was monitored as described for panel B. Reactions were initiated by mixing (1:1 v/v) a solution containing SULT1A3 (30 nM, dimer), CMP13 [0 μM (black dots) or 1.0 μM, 100 × Kd (red and blue dots)], Tam [0 μM (black and blue dots) or 160 μM, 200 × Kd (red dots)], KPO4 (50 mM), pH 7.5, 25(±2) °C, with a solution that was identical except that it lacked SULT1A3 and contained PAP at twice the indicated concentrations. Each kobs value was determined in triplicate, and the averaged values are shown. kon and koff are given, respectively, by the slopes and intercepts obtained from linear least-squares fitting of the kobs vs [PAP] plot. PAP, 3′-phosphoadenosine-5′-phosphate; SULT1A3, sulfotransferase 1A3; Tam, 4-hydroxy-tamoxifen.
To resolve this uncertainty, PAP on- and off-rate constants for a series of open and closed complexes were determined using stopped-flow fluorescence. A representative binding reaction can be seen in Fig. 4B. The binding reactions were pseudo-first order in [PAP], and kobs values were obtained by fitting reaction progress curves to a single-exponential equation. On- and off-rate constants (see Table 3) are given by the plot slopes and intercepts.
Pre–steady-state binding of PAP to SULT1A3 was monitored via ligand-induced changes in SULT1A3 fluorescence using an Applied Photophysics SX20 stopped-flow spectrofluorometer. Fluorescence was measured at λex = 290 nm and λem ≥ 330 nm (using a cutoff filter). […] All reactions were pseudo first order with respect to [PAP]. kobs values, determined in triplicate at each PAP concentration, were obtained by least-squares fitting the average of five progress curves to a single-exponential equation. kon and koff, obtained by linear least-squares fitting, are given by the slopes and intercepts of four-point kobs-vs-[PAP] plots.

[4] = PAP binding to complex E·CMP13, CMP13 1.0 μM
[5] = PAP binding to complex E·CMP13·Tam
[6] = PAP binding to complex E·CMP13·Tam, CMP13 1.0 μM, Tam 160 μM

| Kd (SULT1A3 [2]; PAP binding to complex E) [nM] | Kd (SULT1A3 [2]; [4]) [nM] | Kd (SULT1A3 [2]; [5]) [nM] | koff (SULT1A3 [3]; PAP binding to complex E) [s⁻¹] | kon (SULT1A3 [3]; PAP binding to complex E) [M⁻¹ s⁻¹] | Kd (SULT1A3 [3]; PAP binding to complex E) [nM] | koff (SULT1A3 [3]; [4]) [s⁻¹] | kon (SULT1A3 [3]; [4]) [M⁻¹ s⁻¹] | Kd (SULT1A3 [3]; PAP binding to complex E·CMP13) [nM] | koff (SULT1A3 [3]; [6]) [s⁻¹] | kon (SULT1A3 [3]; [6]) [M⁻¹ s⁻¹] | Kd (SULT1A3 [3]; [5]) [nM] | SMILES | % Inhibition at saturation (SULT1A3 [1]; in vitro) | factor by which SULT1A3 turnover is reduced at saturation (SULT1A3 [1]) | turnover at saturation as % of that seen in absence of inhibitor (SULT1A3 [1]) [%] |
| --- | --- | --- | --- | --- | --- | --- | --- | --- | --- | --- | --- | --- | --- | --- | --- |
| – | – | – | – | – | – | – | – | – | – | – | – | CC(C)Cc1ccc2cc(CO)ccc2n1 [CMP8] | 54 (3) % | 2 | 46 |
| 320 | 31 | 350 | 2.5 | 6.9e+06 | 360 | 0.18 | 6.6e+06 | 29 | 2.3 | 6.5e+06 | 350 | Nc1ncnc2c1ncn2[C@@H]1O[C@H](COP(=O)(O)O)[C@@H](OP(=O)(O)O)[C@H]1O [PAP, 3′-phosphoadenosine-5′-phosphate] | – | – | – |
